Tests used:
[1] = biological target: FoccCSP-Gln87Ala (Frankliniella occidentalis, UniProt G4Y3X1, Q87A); assay: Fluorescence (1-NPN) binding and competitive binding assay, FoccCSP mutant
Description: (§1) The binding affinity of FintCSP1 and FoccCSP to the fluorescent probe N-phenyl-1-naphthylamine (1-NPN) was tested using a Spectramax M2 fluorescence spectrometer (Molecular Devices, USA) as reported previously. Volatile compounds and 1-NPN were first dissolved to a concentration of 1 mM in HPLC-grade methanol and dissolved to their indicated final concentration (2–20 μM) to titrate 2 μM protein solutions resuspended in 50 mM Tris-HCl (pH 7.4). The 1-NPN/FintCSP1 or 1-NPN/FoccCSP mixture was excited at 280 nm, and the emission spectra were recorded at 415 nm. The binding constants (Kd) of FintCSP1 or FoccCSP to 1-NPN were calculated by Scatchard analysis using Prism 5 software (GraphPad, La Jolla, CA, USA). Assuming a protein activity of 100% and that the volatile compound binds to the protein in a 1:1 ratio at saturation, the dissociation constants (Ki) of FintCSP1 or FoccCSP for each ligand were calculated according to the IC50 (the concentration when the ligand replaces 50% of the probe) value of the volatile compounds. The Ki values were calculated according to the following equation: Ki = [IC50]/(1 + [1-NPN]/K1-NPN), where [1-NPN] is the free concentration of 1-NPN, and K1-NPN is the Kd of the 1-NPN/FintCSP1 or 1-NPN/FoccCSP.
(§2) To verify the key amino acids of FintCSP1 and FoccCSP that bind to cis-3-hexenal, six amino acid residues of FintCSP1 were mutated (Lys26Ala, Phe27Ala, Thr28Ala, Glu67Ala, Ser84Ala, and the negative control residue Val132Ala) and nine amino acid residues of FoccCSP were mutated (Lys26Ala, Phe27Ala, Thr28Ala, Thr29Ala, Tyr31Ala, Asp64Ala, Glu67Ala, Gln87Ala, and the negative control residue Val132Ala) with the Fast Mutagenesis System Kit (Transgen Biotech, Beijing, China) using the pET-30a/FintCSP1 and pET-30a/FoccCSP plasmid DNA as template, respectively. Specific primers were designed using Primer Premier 5.0 according to the instructions of the Fast Mutagenesis System Kit (S1 Table). After validation by sequencing, each recombinant variant protein was produced and purified as described above, and their binding affinity to cis-3-hexenal was measured as described above.

[2] = biological target: FoccCSP-Tyr31Ala (Frankliniella occidentalis, UniProt G4Y3X1, Y31A); assay: as above
FoccCSP-Tyr31Ala, sequence (G4Y3X1 entry or part of it Y31A): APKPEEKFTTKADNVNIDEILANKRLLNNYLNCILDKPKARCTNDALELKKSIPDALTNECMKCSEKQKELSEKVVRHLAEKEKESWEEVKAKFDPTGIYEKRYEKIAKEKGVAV
Description: as §1, §2

[3] = biological target: FoccCSP-Lys26Ala (Frankliniella occidentalis, UniProt G4Y3X1, K26A); assay: as above
FoccCSP-Lys26Ala, sequence (G4Y3X1 entry or part of it K26A): as the sequence (G4Y3X1 entry or part of it Y31A) above, with K7A, A12Y counted along it
Description: as §1, §2

[4] = system: F. intonsa antennae; assay: Electroantennogram (EAG) assay; design: species or system Frankliniella intonsa
Description: The FintCSP1, FintCSP2, FintOBP, FintOR, FoccCSP, and enhanced green fluorescent protein (EGFP) coding sequences were obtained from GenBank under accession numbers MT199111, MT211602, OK067245, MT211603, AEP27186.1, and U55761.1, respectively. Primers were designed using Primer Premier 5.0, and the T7 promoter sequence (5′-[…]-3′) was added to the 5′ end of each primer (S1 Table). DNA fragments containing T7 promoter sequences were amplified by PCR using pEASY-T1/target gene or pUC-EGFP (preserved in the laboratory) plasmid DNA as template. Then, a double-stranded RNA (dsRNA) was produced from each target gene using the HiScribe T7 Quick High Yield RNA Synthesis Kit (New England Biolabs) according to the manufacturer’s instructions. Six hundred 2-day-old female F. intonsa or two hundred 2-day-old female F. occidentalis adults were anesthetized using CO2 and microinjected with 40 nL (3 μg/μL) dsRNA (dsFintCSP1 dsFintCSP2, dsFintOBP, dsFintOR or dsFoccCSP or dsEGFP) using a CellTram Oil microinjector (Eppendorf, Hamburg, Germany). The injected thrips were kept on broad beans in an artificial climate incubator as described above and used in subsequent RNAi experiments. Three biological replicates were conducted for each treatment with each dsRNA.
At 24 h after dsRNA injection, the electrophysiological responses of F. intonsa antennae to six volatile components (i.e., m-cymene, cis-3-hexenal, (+)-2-carene, trans-2-hexenal, α-phellandrene, and α-humulene) or F. occidentalis antennae to cis-3-hexenal were recorded using EAG. Antennae of female adult thrips were cut off at the base, and the distal terminus was carefully removed. The tested compounds were dissolved in liquid paraffin, with pure liquid paraffin used as a negative control. An Ag-AgCl2 glass electrode and Kaissling electrode solution were used in the experiment according to Tian et al.. The base of the antenna was inserted into the glass capillary filled with electrode solution at the end of the reference electrode; the top of the antenna was connected to the glass capillary at the end of the recording electrode to ensure no bubbles in the glass capillary. After successful connection, the antennae were stimulated with each chemical in the following order: liquid paraffin, volatile compounds, and liquid paraffin. Stimulus time was 0.2 s with each stimulus at 40 s intervals. At least 10 antennae were tested for each volatile compound. The EAG values to volatile compounds were calculated using the following equation: absolute value of EAG reaction = reaction value of the tested sample—average value of two control measurements.

FoccCSP-Gln87Ala, sequence (G4Y3X1 entry or part of it Q87A): as the sequence (G4Y3X1 entry or part of it Y31A) above, with A12Y, Q68A counted along it

CC/C=C\CC=O [cis-3-hexenal]
IC50 [1]: 47.47 ± 0.44 µM | Ki [1]: 43.68 ± 0.41 µM | binding affinity to cis-3-hexenal (in words) ([1]; FoccCSP-Gln87Ala compared to the wild-type protein): significantly decreased binding affinities | IC50 [2]: 43.9 ± 0.66 µM | Ki [2]: 37.4 ± 0.56 µM | binding affinity to cis-3-hexenal (in words) ([2]; FoccCSP-Tyr31Ala compared to the wild-type protein): significantly decreased binding affinities | IC50 [3]: 36 ± 0.79 µM | Ki [3]: 32.6 ± 0.71 µM | binding affinity to cis-3-hexenal (in words) ([3]; FoccCSP-Lys26Ala compared to the wild-type protein): significantly decreased binding affinities | EAG peak amplitude ([4]; 10 mg/L in liquid paraffin, excised F. intonsa antennae): –0.077 mV | EAG response of FintCSP1-silenced antennae (in words) ([4]; dsFintCSP1-injected compared to dsEGFP-injected F. intonsa, 24 h after injection): significantly lower response
